{"source": "patent US11684614B2", "about": "“Formulations of hydroxypyridonate actinide/lanthanide decorporation agents” (priority 2017, dated 2023)", "type_in_all_cases": "in vitro ADME", "key": {"[1]": {"experiment": "In vitro human liver microsome stability"}, "[2]": {"experiment": "Double-Sink PAMPA permeability assay with permeation enhancers (flux ratio)", "conditions": "compared with reference compound Ranitidine", "method": "The objective of the analytical study described in Part C of this report was to assess the feasibility of enhancing the permeability of the active pharmaceutical ingredient 3,4,3-L1(1,2-HOPO) using oral permeation enhancers. Evaluation was performed using an in vitro pK assay based on the Double-Sink™ PAMPA technology developed by pION, Inc.\nThe permeability enhancement study was performed in two stages. In the first stage (TABLE 10.1), 15 formulations were prepared and screened. The second stage (TABLE 10.2) was performed to refine the concentrations of the permeability enhancers that seemed to display permeability enhancement in the first screening. The screening conditions for both stages are listed below. The sample solutions were stored throughout the study in 20 mL clear scintillation glass vials with polypropylene cap and pulp foil liner, wrapped in aluminum foil.\n• Test Solutions: Vehicles containing the permeation enhancers were prepared by weighing the adequate quantity of enhancer and dissolving it into 100 mL of purified water to reach the designated concentration. Test solutions were then prepared by weighing 10 mg of 3,4,3-L1(1,2-HOPO), dissolving it into 10 mL of each of the vehicles to reach a concentration of 1 mg/mL (purified water was used for the control solution). The final pH and clarity of each solution were recorded. […]"}, "CYP2D6": {"molecular_target": "CYP2D6 (Homo sapiens, UniProt P10635)", "sequence (P10635 whole entry)": "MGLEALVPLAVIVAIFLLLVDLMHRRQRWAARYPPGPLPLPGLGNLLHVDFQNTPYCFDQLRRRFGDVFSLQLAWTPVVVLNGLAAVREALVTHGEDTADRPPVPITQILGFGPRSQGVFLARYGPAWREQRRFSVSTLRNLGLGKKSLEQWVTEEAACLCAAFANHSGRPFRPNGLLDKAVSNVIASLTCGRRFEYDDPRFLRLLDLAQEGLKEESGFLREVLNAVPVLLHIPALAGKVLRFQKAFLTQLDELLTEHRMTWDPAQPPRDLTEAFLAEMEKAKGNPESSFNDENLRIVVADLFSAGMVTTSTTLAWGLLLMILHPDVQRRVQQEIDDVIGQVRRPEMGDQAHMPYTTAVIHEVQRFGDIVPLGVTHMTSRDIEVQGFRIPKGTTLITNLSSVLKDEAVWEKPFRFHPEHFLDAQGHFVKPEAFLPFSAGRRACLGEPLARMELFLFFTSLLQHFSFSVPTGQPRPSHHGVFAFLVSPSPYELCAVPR", "experiment": "CYP inhibition"}}, "data": [{"smiles": "O=C(NCCCN(CCCCN(CCCNC(=O)c1cccc(=O)n1O)C(=O)c1cccc(=O)n1O)C(=O)c1cccc(=O)n1O)c1cccc(=O)n1O", "note": "[3,4,3-L1(1,2-HOPO)]", "values": [{"measurement": "stability in human liver microsomes", "setting": "[1]", "value": "relatively stable"}, {"measurement": "permeability (PAMPA)", "setting": "[2]", "value": "very low permeability"}, {"measurement": "inhibition of CYP2D6 activity", "setting": "CYP2D6", "value": "did not inhibit"}]}]}
